In US8563603B2, “Polycyclic compounds and methods related thereto” (Cornell University, priority 2008, dated 2013):

Columns and labels:
breast cancer cell lines = assay: Alamar Blue cytotoxicity, averaged across cell lines or cell line not stated; format: cell-based, human; conditions: averaged across cell lines
Protocol: (§1) Human breast carcinoma cell line lines; SKBR-3, BT20, MB-MDA-468, MB-MDA-453, MB-MDA-231, and MCF-7 and human cancer cell lines Calu-6, Hela, HCT-116, HT-29, and A-431, obtained from ATCC (Manassas, Va.), were cultured in Dulbecco's Modified Eagle's Medium (DMEM-Sigma D-564R) supplemented with 10% Fetal Calf Serum (heat-inactivated) and antibiotics (Antibiotic Antimycotic Solution 100×, Sigma A9909). Breast cancer cell lines were chosen based on their varying amount of Epidermal Growth Factor Receptors (EGFR). Cells were routinely propagated and cultured at 37° C. in a 100% relative humidified atmosphere consisting of 5% C02 and 95% air. Cells were trypsinized with 0.05% Trypsin-0.2% EDTA (w/v) solution. All experiments were repeated at least three times.
Cells were seeded onto a standard 96-well microtiter plate at a density of 2×10^4 cells/well in 100-μl tissue culture medium. […] Each well was evaluated at seven 10-fold dilutions starting from a high of 1000 ppm. […] Following a 48-h incubation period, extracted cells were evaluated using Alamar Blue, a fluorometric/colorimetric assay that measures cell proliferation by relying on the cells metabolic activity. […] Data were analyzed immediately by visualizing color densities and/or with a standard spectrophotometer at 540 nm.

cancer cell lines = assay: Sulforhodamine B (SRB) assay, cell line not stated / average of all cell lines; format: cell-based, human; conditions: highest concentration; positive control averaged on all cell lines
Protocol: as §1
In addition to Alamar blue, Sulforhodamine B Assay (SRB) was used to determine inhibition by bound protein. Individual cell lines were seeded at varying cell densities as determined by growth rate. […] The absorbance of stained protein was read with an automated 96-well microtiter ELISA plate reader (SAFIRE) at 540 nm. Using absorbance measurement [time zero. (Tz)—control growth, and growth at each drug concentration level (Ti)], the percentage growth is calculated at each of the drug concentrations. Percent growth inhibition is calculated as: [(Ti−Tz)/Tz]×100 for concentration for which Ti<Tz.

[1] = tested on: Human breast cancer cell line MB-MDA-231; assay: Annexin V FITC / PI apoptosis detection by flow cytometry, 24 h; format: cell-based
Protocol: Human breast cancer cell line MB-MDA-231 were cultured in Dulbecco's Modified Eagle's medium (DMEM-Sigma, D-5648), supplemented with 10% (heat-inactivated) Fetal Bovine Serum (Atlanta Biologicals, Inc.) and Antibiotic Solution, 100× (Sigma A-9909). Cells were gown at 37° C., at 5-7% CO2, and 95% humidity and were obtained from the American Type Culture Collection (ATCC). Cells were trypsinized with 0.05% Trypsin-0.2% EDTA (w/v) solution (Invitrogen Corporation, Carlsbad, Calif.).
The induction of apoptosis in MB-MDA-231 was analyzed using a well-validated Annexin V FITC apoptosis detection kit (Calbiochem), Darzynkiewicz, 1998. The phosphatidylserine (PS)-specific dye Annexin-V is used to detect apoptotic-specific changes to the organization of phospholipids leading to exposure of PS on the cell surface that precedes nuclear breakdown, DNA fragmentation, and the appearance of most apoptosis-associated molecules. For these studies cells were seeded at 25×10^4 cells/1.5 ml in a 24 well microtiter plate. Cells were allowed to adhere to plates for 24 h, and then exposed to lignans of the present invention at 5-fold dilutions of 30 μl, 6 μl, and 1.2 μl per well for 24 h. Test compounds were mixed in solution using DMSO as vehicle (10 mg extract/1 ml DMSO). Camptothecin was used as a positive control. Following the incubation period 700 μl of suspended cells were transferred to 15 ml conical tubes. Cells that remained adhered to the 24-well plates were gently washed with PBS (137 mM NaCl, 2.7 mM KCL, 4.3 mM Na2HPO4-7H2O, 1.4 mM KH2PO4, adjusted to pH 7.4), trypsinized with 1 ml of solution (0.05% Trypsin—0.2% EDTA [w/v]), and resuspended with the suspended cells/media collected in the 15 ml conical tubes from the previous step. 10 μl of media-binding reagent and 1.25 μl Annexin V-FITC was added to the 15 ml conical tubes containing both the 700 μl of suspended cells and the resuspended cells and incubated at room temperature for 15 min, at 18-24° C., in the dark. Tubes were centrifuged for 5 minutes at 1000×g at room temperature. Media was removed and cells were gently resuspended in 0.5 ml cold 1×binding buffer (dilution; 5× Binding Buffer concentrate 1:5 with dH2O) and placed on ice. 10 μl of propidium iodide was added to each tube. Cells were placed on ice away from light and analyzed immediately by flow cytometry. The dual fluorescence emissions of the respective dyes were detected in cell preparations on a BD-Biosciences FACS Aria high-speed flow cytometer/cell sorter utilizing a quartz cuvette for interrogation. To quantify the Annexin V (FL1 at 518 nm) and propidium iodide (620 nm) signals, apoptosis-induced cells (CPT) stained with FITC only and apoptosis-induced cells (CPT) labeled with only propidium iodide were utilized. Necessary adjustments were made to minimize overlap between these two measurements. Typically, 10,000-20,000 cells were scored for each sample and classified as either viable, early apoptotic, or late apoptotic or necrotic. All experiments were repeated at least three times, each in duplicate.
The principal of the Annexin V/FITC assay is that, Annexin V, an anticoagulant protein, preferentially binds negatively charged phospholipids. Early in the apoptotic process, phospholipid asymmetry is disrupted leading to the exposure of phosphatidylserine (PS) on the outer leaflet of the cytoplasmic membrane. Annexin V binds to the negatively charged calcium-dependent PS. Conjugating FITC to Annexin V with simultaneous propidium iodide (PI) staining allows bivariate analysis of intact cells. Live, healthy cells are double negative, FITC (−)/PI (−), and are seen in the lower left quadrant [A3] of FACS cytograms. Cells that are FITC (+)/PI (−) [A4] are early apoptotic. Cell populations that are advanced apoptotic or necrotic are FITC (+)/PI (+) are located in quadrant [A2]. […]

cell line MD-MBA-231 = assay: Cell cycle analysis by DNA content (hypotonic PI staining, flow cytometry); format: cell-based, human; conditions: 1.2, 6.0, 30.0 ppm; 24 h
Protocol: Twenty-four hours after exposure to compounds, 25×10^4 cells in 1.5 ml cells were simply re-suspended following either the Annexin V/FITC assay or the trypsin procedures. Cells were centrifuged at 1000-x g at room temperature and washed in 0.5 ml of hypotonic staining solution. Cells were kept a minimum of 30 min. at 4° C. in the dark. Samples were usually analyzed by flow cytometry on the same day or at 24 hrs. Resulting DNA distributions were analyzed for the proportion of cells in apoptosis and in G0/G1, S, and G2/M phases of the cell cycle. Singlet events were gated and 10,000-20,000 events were acquired within the gated region. All experiments were repeated at least three times, each in duplicate.
The cell cycle comprises steps that regulate the correct temporal sequence of events that control the growth, reproduction and differentiation of cells. The cell cycle consists of 4 phases: G0/G1, S (DNA synthesis), G2, and M (mitosis). In addition, checkpoints located in the cell cycle transition ensure that cell growth and division occur in response to appropriate signals and environment. When proliferating, if cells are subjected to DNA damage the cell cycle temporarily pauses either at G1, S or G2 phase. Arrest at these checkpoints prevents DNA replication and mitosis in the presence of unrepaired DNA damage and presumably allows time for DNA repair to occur. The proportion of cells that arrest in G1, S or G2 after damage depends on cell type, growth conditions, type of damage and the checkpoints operative in the cells. Shifts in the redistribution of phases of the cell cycle in response to various stimuli can be readily assessed by flow cytometry. DNA content analysis with the use of PI is one of the most common assays. The use of intercalating dyes to measure DNA content are the most common and are usually sufficient to determine relative shifts in the phases of the cell cycle. The hypotonic solution lyses the plasma membrane and prevents many of the aggregate problems associated with fixed cells. Propidium Iodide(PI) passes through permeabilized cell membranes and intercalates with cellular DNA. Therefore, the intensity of the PI signal is directly proportional to DNA content. DNA content experiments determine the percent induction of apoptosis and relative distribution of the cell cycle phases.
The percent of apoptotic cells (cells with fractional DNA content; sub G1 cells) were established by estimating the percentage of events showing up in sub G0. The Sub-G1 method relies on the fact that after DNA fragmentation, there are small fragments of DNA that may be eluted. However in order to be seen in the Sub G1 area, a cell must have lost enough DNA to appear there; so if cells enter apoptosis from the S or G2/M phase of the cell cycle or if there is an aneuploid population undergoing apoptosis, they may not appear in the Sub G1 peak. The number of events in sub G1 (number of nuclear fragments) provides no information on the # of cells undergoing apoptosis.

## O=c1[nH]cc(F)c(=O)[nH]1 [5-fluorouracil, 5-Fluorouracil]
Breast cancer cell lines
  concentration of cell death / greatest inhibition, positive controls: cell death at the same lower limits as cell lines BT20 and MB-MDA-453
Cancer cell lines
  inhibited cell growth: approximately 60%

## CC[C@@]1(O)C(=O)OCc2c1cc1n(c2=O)Cc2cc3ccccc3nc2-1 [Camptothecin, reference compound]
Breast cancer cell lines
  concentration of cell death / greatest inhibition, positive controls: 7.81 ppm
[1]; 1.2, 6.0, 30.0 ppm, 24 h
  early stage apoptosis, FITC (+)/PI (−) staining, significance: significantly increased
[1]; all doses
  early apoptosis activity increased over the spirocyclic lignans: at least 5%
Cell line MD-MBA-231
  % events in sub G0 (apoptotic events): increased and significantly induced apoptotic activity at 30.0 ppm
  effect on cell population in G2/M: remained at levels with untreated cells at all doses
  effect on cell populations in S-phase, significance: significant at 6.0 and 30.0 ppm
  singlet count: reached minimal levels at 30 ppm
